The text below walks through data of ChEMBL document CHEMBL5442219.

What all share (conditions): Compound concentration 10 µM
The target of assay [1] is Beta-3 adrenergic receptor (Homo sapiens) (UniProt P13945).
Description: PDSP Primary Binding target: ADRB3 - Compounds are tested at 10 uM concentration, plate are incubated at room temperature in the dark for 90 minutes. Reaction are stopped by vacuum filtration onto 0.3% polyethyleneimine soaked filter mats using Filtermate harvester. Scintilation cocktail is then melted onto microwave-dried filters on a hot plate and the radio activity is counted in Microbia counter.
The target of assay [2] is Mu-type opioid receptor (Homo sapiens) (UniProt P35372).
Description: PDSP Primary Binding target: OPRM1 - Compounds are tested at 10 uM concentration, plate are incubated at room temperature in the dark for 90 minutes. Reaction are stopped by vacuum filtration onto 0.3% polyethyleneimine soaked filter mats using Filtermate harvester. Scintilation cocktail is then melted onto microwave-dried filters on a hot plate and the radio activity is counted in Microbia counter.
Assay [3] deals with Sigma intracellular receptor 2 (Homo sapiens) (UniProt Q5BJF2).
Description: PDSP Primary Binding target: TMEM97 - Compounds are tested at 10 uM concentration, plate are incubated at room temperature in the dark for 90 minutes. Reaction are stopped by vacuum filtration onto 0.3% polyethyleneimine soaked filter mats using Filtermate harvester. Scintilation cocktail is then melted onto microwave-dried filters on a hot plate and the radio activity is counted in Microbia counter.
Assay [4] addresses T1, Alpha-2B adrenergic receptor (Homo sapiens) (UniProt P18089).
T1 sequence (whole entry): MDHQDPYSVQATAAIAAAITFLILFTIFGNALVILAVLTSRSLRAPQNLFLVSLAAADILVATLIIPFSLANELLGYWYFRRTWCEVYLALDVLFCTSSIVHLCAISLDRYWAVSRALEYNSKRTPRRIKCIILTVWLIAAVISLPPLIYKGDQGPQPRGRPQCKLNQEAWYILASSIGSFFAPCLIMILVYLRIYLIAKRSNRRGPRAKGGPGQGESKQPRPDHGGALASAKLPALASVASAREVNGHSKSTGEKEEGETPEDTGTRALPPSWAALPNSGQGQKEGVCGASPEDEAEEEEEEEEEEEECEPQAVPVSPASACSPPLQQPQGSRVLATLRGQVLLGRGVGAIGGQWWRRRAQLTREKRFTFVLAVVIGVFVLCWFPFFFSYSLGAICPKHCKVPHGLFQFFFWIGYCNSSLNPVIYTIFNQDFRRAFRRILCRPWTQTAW
Description: PDSP Primary Binding target: ADRA2B - Compounds are tested at 10 uM concentration, plate are incubated at room temperature in the dark for 90 minutes. Reaction are stopped by vacuum filtration onto 0.3% polyethyleneimine soaked filter mats using Filtermate harvester. Scintilation cocktail is then melted onto microwave-dried filters on a hot plate and the radio activity is counted in Microbia counter.

Assay [5] addresses T2, 5-hydroxytryptamine receptor 2C (Homo sapiens) (UniProt P28335).
T2 sequence (whole entry): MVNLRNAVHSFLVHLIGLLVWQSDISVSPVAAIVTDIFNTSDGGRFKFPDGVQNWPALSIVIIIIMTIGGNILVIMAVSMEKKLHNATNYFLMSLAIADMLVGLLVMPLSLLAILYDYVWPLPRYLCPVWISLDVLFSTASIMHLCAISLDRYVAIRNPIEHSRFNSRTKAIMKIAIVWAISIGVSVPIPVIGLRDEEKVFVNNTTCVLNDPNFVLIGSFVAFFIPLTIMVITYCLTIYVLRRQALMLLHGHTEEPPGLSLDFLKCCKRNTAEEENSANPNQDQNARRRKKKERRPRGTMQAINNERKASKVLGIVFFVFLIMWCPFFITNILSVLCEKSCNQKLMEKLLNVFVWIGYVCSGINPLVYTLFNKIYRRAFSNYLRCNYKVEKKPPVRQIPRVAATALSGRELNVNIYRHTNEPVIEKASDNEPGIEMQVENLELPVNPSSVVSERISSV
Description: PDSP Primary Binding target: HTR2C - Compounds are tested at 10 uM concentration, plate are incubated at room temperature in the dark for 90 minutes. Reaction are stopped by vacuum filtration onto 0.3% polyethyleneimine soaked filter mats using Filtermate harvester. Scintilation cocktail is then melted onto microwave-dried filters on a hot plate and the radio activity is counted in Microbia counter.

In assay [6] the target is Beta-2 adrenergic receptor (Homo sapiens) (UniProt P07550).
Description: PDSP Primary Binding target: ADRB2 - Compounds are tested at 10 uM concentration, plate are incubated at room temperature in the dark for 90 minutes. Reaction are stopped by vacuum filtration onto 0.3% polyethyleneimine soaked filter mats using Filtermate harvester. Scintilation cocktail is then melted onto microwave-dried filters on a hot plate and the radio activity is counted in Microbia counter.
Assay [7] deals with Kappa-type opioid receptor (Homo sapiens) (UniProt P41145).
Description: PDSP Primary Binding target: OPRK1 - Compounds are tested at 10 uM concentration, plate are incubated at room temperature in the dark for 90 minutes. Reaction are stopped by vacuum filtration onto 0.3% polyethyleneimine soaked filter mats using Filtermate harvester. Scintilation cocktail is then melted onto microwave-dried filters on a hot plate and the radio activity is counted in Microbia counter.
Assay [8] concerns the target Histamine H2 receptor (Homo sapiens) (UniProt P25021).
Description: PDSP Primary Binding target: HRH2 - Compounds are tested at 10 uM concentration, plate are incubated at room temperature in the dark for 90 minutes. Reaction are stopped by vacuum filtration onto 0.3% polyethyleneimine soaked filter mats using Filtermate harvester. Scintilation cocktail is then melted onto microwave-dried filters on a hot plate and the radio activity is counted in Microbia counter.
The target of assay [9] is 5-hydroxytryptamine receptor 1D (Homo sapiens) (UniProt P28221).
Description: PDSP Primary Binding target: HTR1D - Compounds are tested at 10 uM concentration, plate are incubated at room temperature in the dark for 90 minutes. Reaction are stopped by vacuum filtration onto 0.3% polyethyleneimine soaked filter mats using Filtermate harvester. Scintilation cocktail is then melted onto microwave-dried filters on a hot plate and the radio activity is counted in Microbia counter.
In assay [10] the target is Translocator protein (Homo sapiens) (UniProt P30536).
Description: PDSP Primary Binding target: TSPO - Compounds are tested at 10 uM concentration, plate are incubated at room temperature in the dark for 90 minutes. Reaction are stopped by vacuum filtration onto 0.3% polyethyleneimine soaked filter mats using Filtermate harvester. Scintilation cocktail is then melted onto microwave-dried filters on a hot plate and the radio activity is counted in Microbia counter.
In assay [11] the target is D(1A) dopamine receptor (Homo sapiens) (UniProt P21728).
Description: PDSP Primary Binding target: DRD1 - Compounds are tested at 10 uM concentration, plate are incubated at room temperature in the dark for 90 minutes. Reaction are stopped by vacuum filtration onto 0.3% polyethyleneimine soaked filter mats using Filtermate harvester. Scintilation cocktail is then melted onto microwave-dried filters on a hot plate and the radio activity is counted in Microbia counter.
In assay [12] the target is 5-hydroxytryptamine receptor 2B (Homo sapiens) (UniProt P41595).
Description: PDSP Primary Binding target: HTR2B - Compounds are tested at 10 uM concentration, plate are incubated at room temperature in the dark for 90 minutes. Reaction are stopped by vacuum filtration onto 0.3% polyethyleneimine soaked filter mats using Filtermate harvester. Scintilation cocktail is then melted onto microwave-dried filters on a hot plate and the radio activity is counted in Microbia counter.
Assay [13] addresses Sigma non-opioid intracellular receptor 1 (Homo sapiens) (UniProt Q99720).
Description: PDSP Primary Binding target: SIGMAR1 - Compounds are tested at 10 uM concentration, plate are incubated at room temperature in the dark for 90 minutes. Reaction are stopped by vacuum filtration onto 0.3% polyethyleneimine soaked filter mats using Filtermate harvester. Scintilation cocktail is then melted onto microwave-dried filters on a hot plate and the radio activity is counted in Microbia counter.
Assay [14] has as its target 5-hydroxytryptamine receptor 2A (Homo sapiens) (UniProt P28223).
Description: PDSP Primary Binding target: HTR2A - Compounds are tested at 10 uM concentration, plate are incubated at room temperature in the dark for 90 minutes. Reaction are stopped by vacuum filtration onto 0.3% polyethyleneimine soaked filter mats using Filtermate harvester. Scintilation cocktail is then melted onto microwave-dried filters on a hot plate and the radio activity is counted in Microbia counter.
The target in assay [15] is T3, Muscarinic acetylcholine receptor M5 (Homo sapiens) (UniProt P08912).
T3 sequence (whole entry): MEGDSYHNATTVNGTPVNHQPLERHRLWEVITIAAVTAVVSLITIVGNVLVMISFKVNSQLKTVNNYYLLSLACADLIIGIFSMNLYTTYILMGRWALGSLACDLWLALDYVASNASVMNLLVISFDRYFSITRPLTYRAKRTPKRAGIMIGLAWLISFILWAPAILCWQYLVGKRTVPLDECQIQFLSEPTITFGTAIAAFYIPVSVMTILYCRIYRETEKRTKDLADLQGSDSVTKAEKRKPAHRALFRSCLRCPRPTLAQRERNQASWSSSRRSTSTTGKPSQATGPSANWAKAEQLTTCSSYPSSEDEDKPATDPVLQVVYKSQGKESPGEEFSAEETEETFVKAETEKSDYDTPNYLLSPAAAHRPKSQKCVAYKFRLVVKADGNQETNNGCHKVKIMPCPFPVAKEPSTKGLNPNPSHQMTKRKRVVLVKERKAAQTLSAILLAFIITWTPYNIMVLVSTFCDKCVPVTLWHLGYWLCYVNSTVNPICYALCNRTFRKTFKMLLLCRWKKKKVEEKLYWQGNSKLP
Description: PDSP Primary Binding target: CHRM5 - Compounds are tested at 10 uM concentration, plate are incubated at room temperature in the dark for 90 minutes. Reaction are stopped by vacuum filtration onto 0.3% polyethyleneimine soaked filter mats using Filtermate harvester. Scintilation cocktail is then melted onto microwave-dried filters on a hot plate and the radio activity is counted in Microbia counter.

In assay [16] the target is T4, Muscarinic acetylcholine receptor M1 (Homo sapiens) (UniProt P11229).
T4 sequence (whole entry): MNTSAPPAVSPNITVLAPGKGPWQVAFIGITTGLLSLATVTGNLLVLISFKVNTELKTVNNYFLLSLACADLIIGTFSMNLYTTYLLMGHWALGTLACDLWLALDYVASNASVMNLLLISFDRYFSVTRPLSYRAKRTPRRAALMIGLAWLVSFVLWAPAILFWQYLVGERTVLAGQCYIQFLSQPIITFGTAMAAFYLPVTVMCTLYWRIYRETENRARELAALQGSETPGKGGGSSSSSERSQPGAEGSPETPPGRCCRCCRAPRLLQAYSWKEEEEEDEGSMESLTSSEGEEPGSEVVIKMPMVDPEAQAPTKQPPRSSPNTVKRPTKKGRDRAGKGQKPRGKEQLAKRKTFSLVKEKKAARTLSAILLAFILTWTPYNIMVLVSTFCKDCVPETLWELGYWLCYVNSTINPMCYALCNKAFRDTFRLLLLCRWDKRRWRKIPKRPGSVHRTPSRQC
Description: PDSP Primary Binding target: CHRM1 - Compounds are tested at 10 uM concentration, plate are incubated at room temperature in the dark for 90 minutes. Reaction are stopped by vacuum filtration onto 0.3% polyethyleneimine soaked filter mats using Filtermate harvester. Scintilation cocktail is then melted onto microwave-dried filters on a hot plate and the radio activity is counted in Microbia counter.

The target in assay [17] is Sodium-dependent dopamine transporter (Homo sapiens) (UniProt Q01959).
Description: PDSP Primary Binding target: SLC6A3 - Compounds are tested at 10 uM concentration, plate are incubated at room temperature in the dark for 90 minutes. Reaction are stopped by vacuum filtration onto 0.3% polyethyleneimine soaked filter mats using Filtermate harvester. Scintilation cocktail is then melted onto microwave-dried filters on a hot plate and the radio activity is counted in Microbia counter.
Assay [18] addresses D(2) dopamine receptor (Homo sapiens) (UniProt P14416).
Description: PDSP Primary Binding target: DRD2 - Compounds are tested at 10 uM concentration, plate are incubated at room temperature in the dark for 90 minutes. Reaction are stopped by vacuum filtration onto 0.3% polyethyleneimine soaked filter mats using Filtermate harvester. Scintilation cocktail is then melted onto microwave-dried filters on a hot plate and the radio activity is counted in Microbia counter.
Assay [19] deals with 5-hydroxytryptamine receptor 1B (Homo sapiens) (UniProt P28222).
Description: PDSP Primary Binding target: HTR1B - Compounds are tested at 10 uM concentration, plate are incubated at room temperature in the dark for 90 minutes. Reaction are stopped by vacuum filtration onto 0.3% polyethyleneimine soaked filter mats using Filtermate harvester. Scintilation cocktail is then melted onto microwave-dried filters on a hot plate and the radio activity is counted in Microbia counter.
The target of assay [20] is D(1B) dopamine receptor (Homo sapiens) (UniProt P21918).
Sequence of D(1B) dopamine receptor (Homo sapiens) (P21918 whole entry): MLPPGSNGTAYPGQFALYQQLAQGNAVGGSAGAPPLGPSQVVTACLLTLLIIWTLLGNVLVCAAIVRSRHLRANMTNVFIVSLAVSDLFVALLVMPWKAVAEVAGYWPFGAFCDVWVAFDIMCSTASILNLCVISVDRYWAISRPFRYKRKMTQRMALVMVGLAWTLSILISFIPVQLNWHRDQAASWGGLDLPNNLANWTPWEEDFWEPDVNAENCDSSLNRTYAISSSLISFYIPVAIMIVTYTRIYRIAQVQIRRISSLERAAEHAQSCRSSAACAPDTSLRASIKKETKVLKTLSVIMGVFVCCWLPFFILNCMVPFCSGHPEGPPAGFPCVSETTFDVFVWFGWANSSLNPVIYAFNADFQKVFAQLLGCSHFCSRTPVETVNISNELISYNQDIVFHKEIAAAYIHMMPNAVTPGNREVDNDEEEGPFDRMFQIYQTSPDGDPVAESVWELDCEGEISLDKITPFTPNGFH
Description: PDSP Primary Binding target: DRD5 - Compounds are tested at 10 uM concentration, plate are incubated at room temperature in the dark for 90 minutes. Reaction are stopped by vacuum filtration onto 0.3% polyethyleneimine soaked filter mats using Filtermate harvester. Scintilation cocktail is then melted onto microwave-dried filters on a hot plate and the radio activity is counted in Microbia counter.

Sequence of Translocator protein (Homo sapiens) (P30536 whole entry): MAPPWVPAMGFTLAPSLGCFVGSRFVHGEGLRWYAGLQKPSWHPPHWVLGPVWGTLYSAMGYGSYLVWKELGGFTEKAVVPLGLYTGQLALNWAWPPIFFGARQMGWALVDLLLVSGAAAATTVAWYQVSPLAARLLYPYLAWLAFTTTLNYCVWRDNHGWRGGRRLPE
Sequence of 5-hydroxytryptamine receptor 2B (Homo sapiens) (P41595 whole entry): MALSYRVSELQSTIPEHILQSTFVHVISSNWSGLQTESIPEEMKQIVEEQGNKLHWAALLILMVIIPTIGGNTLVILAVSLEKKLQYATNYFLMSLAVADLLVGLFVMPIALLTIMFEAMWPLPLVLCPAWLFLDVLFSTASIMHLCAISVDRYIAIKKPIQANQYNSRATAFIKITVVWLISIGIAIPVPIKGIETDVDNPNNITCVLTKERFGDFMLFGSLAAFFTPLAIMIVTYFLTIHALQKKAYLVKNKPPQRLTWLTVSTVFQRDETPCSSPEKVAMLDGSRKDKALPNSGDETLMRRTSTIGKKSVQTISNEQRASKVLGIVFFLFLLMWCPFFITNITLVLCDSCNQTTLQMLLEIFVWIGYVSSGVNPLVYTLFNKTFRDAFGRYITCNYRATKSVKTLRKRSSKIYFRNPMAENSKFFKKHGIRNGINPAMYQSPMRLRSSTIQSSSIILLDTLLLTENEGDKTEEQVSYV
Sequence of Sodium-dependent dopamine transporter (Homo sapiens) (Q01959 whole entry): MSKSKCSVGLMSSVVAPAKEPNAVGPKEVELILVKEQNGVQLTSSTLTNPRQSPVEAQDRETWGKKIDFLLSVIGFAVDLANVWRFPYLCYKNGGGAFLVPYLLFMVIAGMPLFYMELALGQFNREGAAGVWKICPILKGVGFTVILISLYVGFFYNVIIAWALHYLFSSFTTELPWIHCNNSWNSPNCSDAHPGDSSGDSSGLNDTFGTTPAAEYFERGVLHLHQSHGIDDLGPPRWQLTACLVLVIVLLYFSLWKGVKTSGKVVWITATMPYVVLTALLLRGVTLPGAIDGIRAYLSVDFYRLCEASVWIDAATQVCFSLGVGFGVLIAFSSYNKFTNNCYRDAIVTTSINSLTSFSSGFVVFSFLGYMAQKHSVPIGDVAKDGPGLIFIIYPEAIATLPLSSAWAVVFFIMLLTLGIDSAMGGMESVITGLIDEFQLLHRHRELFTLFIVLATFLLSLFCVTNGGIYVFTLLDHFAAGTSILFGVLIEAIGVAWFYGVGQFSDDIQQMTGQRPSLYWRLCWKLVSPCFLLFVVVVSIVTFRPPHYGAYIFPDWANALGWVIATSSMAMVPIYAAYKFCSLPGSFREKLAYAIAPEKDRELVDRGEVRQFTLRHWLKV
Sequence of Beta-3 adrenergic receptor (Homo sapiens) (P13945 whole entry, looked up): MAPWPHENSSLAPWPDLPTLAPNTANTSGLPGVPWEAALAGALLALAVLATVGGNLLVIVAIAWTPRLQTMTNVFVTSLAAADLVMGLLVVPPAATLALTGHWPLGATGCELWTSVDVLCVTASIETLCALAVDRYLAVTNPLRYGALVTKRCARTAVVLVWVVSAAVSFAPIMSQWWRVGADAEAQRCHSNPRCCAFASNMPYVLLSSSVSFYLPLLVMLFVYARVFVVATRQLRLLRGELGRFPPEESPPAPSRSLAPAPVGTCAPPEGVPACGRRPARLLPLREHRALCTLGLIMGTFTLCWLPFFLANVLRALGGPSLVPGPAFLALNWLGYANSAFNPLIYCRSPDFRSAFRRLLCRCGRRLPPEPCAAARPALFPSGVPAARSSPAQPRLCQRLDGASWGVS
Sequence of Sigma non-opioid intracellular receptor 1 (Homo sapiens) (Q99720 whole entry): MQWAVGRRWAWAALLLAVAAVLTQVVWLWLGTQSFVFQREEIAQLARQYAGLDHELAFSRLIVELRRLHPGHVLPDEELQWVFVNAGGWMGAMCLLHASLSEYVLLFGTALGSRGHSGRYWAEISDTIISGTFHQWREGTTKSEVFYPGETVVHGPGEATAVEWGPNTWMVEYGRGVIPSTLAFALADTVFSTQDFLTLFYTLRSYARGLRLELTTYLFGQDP
Sequence of 5-hydroxytryptamine receptor 2A (Homo sapiens) (P28223 whole entry): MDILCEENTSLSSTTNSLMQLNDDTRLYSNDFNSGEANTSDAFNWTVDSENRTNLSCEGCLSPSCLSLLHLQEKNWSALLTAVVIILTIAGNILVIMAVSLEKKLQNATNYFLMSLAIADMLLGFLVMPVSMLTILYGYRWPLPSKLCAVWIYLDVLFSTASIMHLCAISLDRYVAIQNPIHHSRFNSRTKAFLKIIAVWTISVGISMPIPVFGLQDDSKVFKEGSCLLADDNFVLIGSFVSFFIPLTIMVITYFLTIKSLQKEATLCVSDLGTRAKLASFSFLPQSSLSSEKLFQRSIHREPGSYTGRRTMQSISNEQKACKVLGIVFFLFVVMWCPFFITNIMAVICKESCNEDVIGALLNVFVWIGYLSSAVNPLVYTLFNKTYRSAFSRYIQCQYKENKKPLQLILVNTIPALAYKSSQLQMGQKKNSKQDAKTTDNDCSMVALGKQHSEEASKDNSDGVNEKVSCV
Sequence of Kappa-type opioid receptor (Homo sapiens) (P41145 whole entry): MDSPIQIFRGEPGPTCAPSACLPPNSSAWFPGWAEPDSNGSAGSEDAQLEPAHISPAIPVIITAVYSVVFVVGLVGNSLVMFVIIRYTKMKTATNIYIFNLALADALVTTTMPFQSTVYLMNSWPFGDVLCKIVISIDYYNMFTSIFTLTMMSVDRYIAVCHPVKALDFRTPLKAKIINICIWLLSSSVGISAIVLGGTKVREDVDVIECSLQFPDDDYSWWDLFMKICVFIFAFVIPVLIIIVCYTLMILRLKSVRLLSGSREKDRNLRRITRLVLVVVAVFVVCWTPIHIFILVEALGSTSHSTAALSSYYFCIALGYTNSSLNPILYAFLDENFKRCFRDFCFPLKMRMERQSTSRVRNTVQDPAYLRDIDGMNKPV
Sequence of Beta-2 adrenergic receptor (Homo sapiens) (P07550 whole entry, looked up): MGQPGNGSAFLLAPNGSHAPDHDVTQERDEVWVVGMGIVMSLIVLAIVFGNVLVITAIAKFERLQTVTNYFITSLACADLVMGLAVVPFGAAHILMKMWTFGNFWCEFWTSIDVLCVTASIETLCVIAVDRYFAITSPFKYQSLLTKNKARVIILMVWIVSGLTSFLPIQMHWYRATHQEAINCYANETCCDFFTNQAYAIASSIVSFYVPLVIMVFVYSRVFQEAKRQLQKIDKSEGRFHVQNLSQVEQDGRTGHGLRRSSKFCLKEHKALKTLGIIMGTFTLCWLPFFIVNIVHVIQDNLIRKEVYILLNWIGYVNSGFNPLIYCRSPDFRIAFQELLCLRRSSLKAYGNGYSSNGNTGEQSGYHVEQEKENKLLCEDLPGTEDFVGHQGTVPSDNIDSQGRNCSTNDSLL
Sequence of 5-hydroxytryptamine receptor 1B (Homo sapiens) (P28222 whole entry): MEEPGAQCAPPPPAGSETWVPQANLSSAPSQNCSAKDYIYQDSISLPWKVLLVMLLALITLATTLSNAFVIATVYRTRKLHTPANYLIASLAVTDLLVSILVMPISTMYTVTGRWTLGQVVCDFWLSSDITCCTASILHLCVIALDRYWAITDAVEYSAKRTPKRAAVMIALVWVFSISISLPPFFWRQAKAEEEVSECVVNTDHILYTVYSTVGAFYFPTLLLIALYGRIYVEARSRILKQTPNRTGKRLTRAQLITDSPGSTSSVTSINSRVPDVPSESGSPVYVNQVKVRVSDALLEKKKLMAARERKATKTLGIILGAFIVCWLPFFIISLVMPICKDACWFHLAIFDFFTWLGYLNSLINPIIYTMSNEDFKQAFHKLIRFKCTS
Sequence of Mu-type opioid receptor (Homo sapiens) (P35372 whole entry): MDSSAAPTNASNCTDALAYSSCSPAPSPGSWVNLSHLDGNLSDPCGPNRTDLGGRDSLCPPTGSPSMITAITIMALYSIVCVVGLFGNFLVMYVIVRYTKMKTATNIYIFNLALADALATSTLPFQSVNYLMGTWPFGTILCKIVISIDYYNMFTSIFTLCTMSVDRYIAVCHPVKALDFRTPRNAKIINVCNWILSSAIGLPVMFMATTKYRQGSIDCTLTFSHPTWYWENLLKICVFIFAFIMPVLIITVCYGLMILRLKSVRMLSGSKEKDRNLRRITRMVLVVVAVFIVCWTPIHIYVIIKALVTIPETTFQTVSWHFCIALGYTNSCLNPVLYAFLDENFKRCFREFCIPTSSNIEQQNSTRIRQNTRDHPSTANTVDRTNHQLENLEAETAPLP
Sequence of D(2) dopamine receptor (Homo sapiens) (P14416 whole entry): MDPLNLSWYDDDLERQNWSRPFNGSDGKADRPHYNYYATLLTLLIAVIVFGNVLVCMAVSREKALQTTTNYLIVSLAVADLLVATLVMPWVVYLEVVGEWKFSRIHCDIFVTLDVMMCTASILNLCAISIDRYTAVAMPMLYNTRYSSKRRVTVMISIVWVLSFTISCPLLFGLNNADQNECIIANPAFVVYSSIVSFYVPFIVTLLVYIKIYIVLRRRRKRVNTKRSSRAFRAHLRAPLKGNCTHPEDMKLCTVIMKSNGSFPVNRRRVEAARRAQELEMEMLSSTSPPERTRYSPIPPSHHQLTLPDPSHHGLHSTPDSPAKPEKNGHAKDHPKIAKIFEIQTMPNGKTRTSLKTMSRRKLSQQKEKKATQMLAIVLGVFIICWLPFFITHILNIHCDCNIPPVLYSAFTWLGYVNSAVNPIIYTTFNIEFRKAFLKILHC

With `Cc1cc(NC(=O)Nc2ccc(N(C)C)cc2)c2cc(F)cc(F)c2n1`, the inhibition in assay [1] is 18.1%; in assay [2] it was 1.4%; in [3], 1.52%; in [4] it was 3.9%; in assay [5], 20.1%; in assay [6], 16.5%. Further, the inhibition in assay [7] was 22.3%; in [8] it was 16.8%; in assay [9], -2.42%; in assay [10], 8.35%; in assay [11], 29.1%; in [12], 73.3%. For the same compound, the inhibition was 96% in assay [13]; 13% in assay [14]; 39.2% in assay [15]; -7.92% in assay [16]; 22.8% in [17]; 52.2% in assay [18].

For `COc1ccc(Br)cc1S(=O)(=O)NC(=O)/C=C/c1ccccc1Cc1ccc2ccccc2c1`, the inhibition in assay [1] was 33.2%; in assay [19], 3.55%; in assay [2], 22.1%; in assay [3], 5.53%; in [4], -4.1%; in assay [5], 26.2%. For the same compound, the inhibition in assay [6] was -2.54%; in assay [7], 1.49%; in assay [8], 16%; in assay [9], 12%; in assay [10] it was 17.7%; in assay [11], -4.59%. The inhibition is -9.64% in [20]; -4.73% in [12]; 11% in assay [13]; 8.02% in assay [14]; 16.9% in [15]; 4.85% in [16]. For the same compound, the inhibition in assay [18] is 29.3%.

On to `O=c1ccn([C@@H]2O[C@H](COP(=O)(O)OP(=O)(O)O)[C@@H](O)[C@H]2O)c(=O)[nH]1`, for which the inhibition is 15.3% in [1]; 1.75% in assay [19]; 44% in assay [2]; 2.62% in assay [3]; -3.44% in [4]; 3.57% in assay [5]. The inhibition in assay [6] was -0.48%; in assay [7], 6.04%; in assay [8] it was -7.58%; in [9], -5.04%; in [10], 5.14%; in assay [20], -4.32%. Also, the inhibition in assay [12] was 0.47%; in [13], 4.23%; in assay [14], 10.7%; in assay [15], -9.39%; in assay [17], 6.84%; in [18], 14.8%.

Consider `CCOC(=O)c1c(C)[nH]c2ccc3c(c12)CN1CCc2cc(OC)ccc2C1O3` (centres undefined), for which the inhibition was 6.3% in assay [1]; 54% in [19]; 56.5% in assay [2]; 36.3% in assay [3]; 60% in assay [4]; 23.2% in assay [6]. The inhibition in assay [7] was 57.4%; in [8], 57.5%; in [9] it was 14.9%; in [10] it was 28.3%; in [11], 1.81%; in [12], 67.6%. Besides, the inhibition is 29.3% in assay [13]; 28.7% in assay [14]; 2.39% in assay [15]; 11.9% in assay [16]; 82.9% in [17]; 4.19% in assay [18].

With `CCCCC#Cc1nc(NC)c2ncn([C@@H]3O[C@H](CO)[C@@H](O)[C@H]3O)c2n1`, the inhibition in [1] is -8.99%; in [19], -7.26%; in assay [2], 2.4%; in [3] it was 8.59%; in [5], 17.8%; in assay [7], 8.14%. Moreover, the inhibition was 16% in assay [8]; 8.46% in assay [9]; 3.46% in assay [10]; 0.72% in assay [11]; -4.41% in [12]; -7.49% in assay [13]. In addition, the inhibition is 92.5% in assay [14], 20% in [15], -6.77% in assay [16] and -5.45% in assay [18].

With `Nc1nc2c(c(N3CCNCC3)n1)CCC1=C2[C@@H]2CCCC[C@@H]2O1`, the inhibition in assay [1] is 14.4%; in assay [2] it was 26.7%; in assay [3], 36.6%; in assay [4], 31.9%; in [5] it was 7.29%; in assay [8], 43.4%. In addition, the inhibition in [9] was 10%; in [10], -6.86%; in assay [11], -6.45%; in assay [20] it was -1.02%; in [12], 81.8%; in assay [13], 86.4%. Also, the inhibition in [14] was 50.6%; in assay [15] it was -3.04%; in [16], 8.9%; in assay [18], 25.9%.

In the case of `CCCCCCCCCCCCCCCCOC[C@H](COP(=O)([O-])OCC[N+](C)(C)C)OC(C)=O`, the inhibition in assay [1] is 28.1%; in assay [19], 13.9%; in [2], 35.1%; in assay [3], 57.9%; in assay [4], 68.8%; in assay [5] it was 67.9%. For the same compound, the inhibition is 11.9% in assay [7]; 4.45% in [8]; 68.2% in assay [9]; 13.6% in assay [20]; 7.97% in assay [13]; 2.23% in assay [14]. Further, the results for the inhibition in assay [16] and in [18] were 49.9% and 7.75%, respectively.
